Data on 2 compounds can be found in US20240327364A1, “THERAPEUTIC TARGETING OF GPR68 TO INDUCE FERROPTOSIS” (University Of Maryland, Baltimore, priority 2023, published 2024).

The target of test [1] is T1, YSK1 (Homo sapiens, UniProt O00506).
T1 construct: purchased DiscoveRx
As to the kind of experiment: KinomeScan. The format is binding. As to conditions: read-out: % Control.

For test [2], the target named is T2, MARK4 (Homo sapiens, UniProt Q96L34).
T2 construct: purchased DiscoveRx (Fremont, CA)
Briefly: KinomeScan. Format: binding. The settings on record: read-out: % Control.

Test [3] concerns the target T3, A2B (Homo sapiens, UniProt P29275).
T3 construct: host or cells: Chem-1 cells with promiscuous Gα15
As to the kind of experiment: GPCR Profiler. The format is cell-based.

Test [4] addresses T4, PDGFRB (Homo sapiens, UniProt P09619).
T4 construct: purchased DiscoveRx (Fremont, CA)
Briefly: KinomeScan. Format: binding. As to conditions: read-out: % Control.

Test [5] addresses T5, INK2 (Homo sapiens, UniProt P45984).
T5 construct: purchased DiscoveRx
Briefly: KinomeScan. As to conditions: read-out: % Control. Format: binding.

For test [6], the target named is T6, A1 (Homo sapiens, UniProt P30542).
T6 construct: host or cells: Chem-1 cells with promiscuous Gα15
Briefly: GPCR Profiler. The format is cell-based.

Test [7] has as its target T7, Ghrelin (Homo sapiens, UniProt Q92847).
T7 construct: host or cells: Chem-1 cells expressing Gα15
As to the kind of experiment: GPCR Profiler. Format: cell-based.

Test [8] has as its target T8, M1 (Homo sapiens, UniProt P11229).
T8 construct: host or cells: Chem-1 cells with promiscuous Gα15
As to the kind of experiment: GPCR Profiler. The format is cell-based.

For test [9], the target named is T9, RSK1(Kin.Dom.1-N-terminal) (Homo sapiens, UniProt Q15418).
T9 construct: RSK1(Kin.Dom.1-N-terminal); purchased DiscoveRx (Fremont, CA)
As to the kind of experiment: KinomeScan. Format: binding. As to conditions: read-out: % Control.

In test [10] the test system is DU145. Briefly: Liperfluo lipid peroxidation. Format: cell-based, human. An excerpt: (§1) OGM2 kills prostate cancer cells by inducing ferroptosis (FIG. 100). […] OGM2 induces ferroptosis in DU145 cells (FIG. 100A) and PC3 cells (FIG. 100C) based on Liperfluo™ lipid peroxidation assay. Erastin, a cystine-glutamate antiporter system Xc^− inhibitor, is a positive control ferroptosis inducer.

The test system of test [11] is PC3. As to the kind of experiment: Liperfluo lipid peroxidation. Format: cell-based, human.
Description: as §1

Test [12] deals with A549. As to the kind of experiment: Acid-induced Mucin-5AC production. Format: cell-based, human. The settings on record: pH 6.4 buffered media, 24 hours. As to the method:
Lung (A549) cells were plated in 6-well plates. The cells then were rinsed and protein was isolated. Dot blots were made with anti Mucin-5AC antibodies, and an equivalent amount of protein was run on a western blot to detect alpha tubulin. Lung (A549) cells were cultured as above, but in pH 6.4 buffered media with increasing concentrations of OGM2. Mucin5AC and alpha tubulin were detected in the same way.
In addition. A549 cells were cultured in pH 6.4 medium with or without OGM2 for 24 hours cells were then rinsed and then stained with Periodic Acid Staining solution which detects mucins. FIG. 30E is a schematic of cas9 mediated endogenous tagging of MU5AC genetic locus with nano-luciferase in A549 cells. For FIG. 30F, Muc5ac-Luc cells were cultured in pH 6.4 buffered medium with and without OGM2 for 24 hours. Cell lysates were then assayed for luciferase activity and normalized to untreated control. See results in FIG. 30F.

The test system of test [13] is HCT 116. As to the kind of experiment: Cell Titer-Glo viability, Colorectal adenocarcinoma. The settings on record: 72 hours. The format is cell-based. As to the method: OGM2 kills wide variety of cancer cell types. Cell sensitivity can be classified in to Very Sensitive (LC50<2 μM), Sensitive (LC50=2 to 10 μM), Mildly Sensitive (LC50>10 μM), and Refractory (no killing at 10 μM). The listed established cell were incubated with OGM2 at 2 μM or 10 μM for 72 hours under standard cell culture conditions, and relative cell number was assessed using Cell Titer-Glo Luminescent Cell Viability Assay (Promega™) following the manufacturer's instructions. Luminescence was determined using a Cytation 5 reader and Gen5 software package (BioTek™).
Cancer cells, which are very sensitive to killing by OGM2 (LCs <2 μM), with reported mRNA expression of GPR68 and the related proton sensing receptor GPR4. LC50's (concentrations causing 50% lethality) were determined using CellTiter-Glo (Promega™, G7570). Cells were plated in 12-well plates (CELLTREAT Scientific Products, 229112) in 1 ml of DMEM with high glucose, GlutaMAX, HEPES, or RPMI 1640 with Penicillin-Streptomycin (ThermoFisher™, 10564029, 11875119 and 15140122) and 10% FBS. Cells were incubated overnight at 37° C. in 5% CO2. Then 1 mL of fresh media was added with DMSO, OGM, or positive control (Erastin; APExBIO Technology, LLC, B1524) and cells incubated for 3 days. On the third day, all media was removed, cells were rinsed with 1×PBS, PBS was removed, and 200 μL of 1× Passive Lysis Buffer (Promega™, E1941) was added to each well. […]. Subsequently, 20 μL of lysate was added to 100 μL CellTiter-Glo™ reagent on a LUMITRAC 200 plate (Greiner™ bio-one, 82050-726). Plates were briefly spun down and read on a GloMax-Multi Detection System (Promega™).
The cells listed in the tables above were incubated with OGM2 at 2 μM or 10 μM for 72 hours under standard cell culture conditions, and relative cell number was assessed using Cell Titer-Glo Luminescent Cell Viability Assay (Promega™) following the manufacturer's instructions. Luminescence was determined using a Cytation 5 reader and Gen5 software package (BioTek™). RNA expression of GPR68 and GPR4 in the corresponding cancer cell lines are listed, according to the publicly available The Human Protein Atlas version 22.0 and Ensembl version 103.38 (see proteinatlas.org). The consensus normalized expression value (“nTPM”=normalize transcript per million) was calculated as the maximum nTPM value for each gene in the two data sources.

T7 sequence (Q92847 whole entry): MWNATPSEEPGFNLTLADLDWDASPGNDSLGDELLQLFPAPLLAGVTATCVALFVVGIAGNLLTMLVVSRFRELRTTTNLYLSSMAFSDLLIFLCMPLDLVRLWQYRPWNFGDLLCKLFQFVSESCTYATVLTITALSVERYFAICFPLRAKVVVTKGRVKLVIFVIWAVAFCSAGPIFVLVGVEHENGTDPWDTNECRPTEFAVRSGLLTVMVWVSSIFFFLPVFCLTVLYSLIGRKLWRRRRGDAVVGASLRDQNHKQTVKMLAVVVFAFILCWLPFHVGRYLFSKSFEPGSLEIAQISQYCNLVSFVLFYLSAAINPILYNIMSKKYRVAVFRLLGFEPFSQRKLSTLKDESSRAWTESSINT
T3 sequence (P29275 whole entry): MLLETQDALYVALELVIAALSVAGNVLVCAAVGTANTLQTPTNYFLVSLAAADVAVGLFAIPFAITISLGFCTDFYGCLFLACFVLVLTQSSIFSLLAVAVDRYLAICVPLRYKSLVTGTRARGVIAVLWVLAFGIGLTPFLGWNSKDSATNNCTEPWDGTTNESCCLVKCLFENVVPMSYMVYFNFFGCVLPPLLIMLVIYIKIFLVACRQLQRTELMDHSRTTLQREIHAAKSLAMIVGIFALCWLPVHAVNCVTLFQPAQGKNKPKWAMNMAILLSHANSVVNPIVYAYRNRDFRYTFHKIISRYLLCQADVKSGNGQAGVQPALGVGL
T8 sequence (P11229 whole entry): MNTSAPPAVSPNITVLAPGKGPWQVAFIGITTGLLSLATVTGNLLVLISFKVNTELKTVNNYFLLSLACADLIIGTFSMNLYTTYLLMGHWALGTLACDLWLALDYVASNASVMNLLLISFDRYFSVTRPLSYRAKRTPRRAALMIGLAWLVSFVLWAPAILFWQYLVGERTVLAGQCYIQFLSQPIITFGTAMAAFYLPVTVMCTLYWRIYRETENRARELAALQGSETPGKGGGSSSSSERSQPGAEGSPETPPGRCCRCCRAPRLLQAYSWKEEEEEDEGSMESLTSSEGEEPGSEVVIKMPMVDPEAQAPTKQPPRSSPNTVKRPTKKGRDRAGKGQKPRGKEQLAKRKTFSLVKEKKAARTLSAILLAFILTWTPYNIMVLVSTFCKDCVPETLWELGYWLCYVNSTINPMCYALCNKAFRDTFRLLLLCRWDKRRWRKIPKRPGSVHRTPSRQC
T6 sequence (P30542 whole entry): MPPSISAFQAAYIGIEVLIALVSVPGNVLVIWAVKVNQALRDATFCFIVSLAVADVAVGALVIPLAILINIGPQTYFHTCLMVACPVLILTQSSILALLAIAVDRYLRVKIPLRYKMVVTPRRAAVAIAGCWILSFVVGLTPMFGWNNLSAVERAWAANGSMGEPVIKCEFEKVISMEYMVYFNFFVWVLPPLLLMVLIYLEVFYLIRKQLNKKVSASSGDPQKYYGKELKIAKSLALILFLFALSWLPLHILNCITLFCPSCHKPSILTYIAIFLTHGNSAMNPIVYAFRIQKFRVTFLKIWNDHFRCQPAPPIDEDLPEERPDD
T9 sequence (Q15418 62-321 limits assumed): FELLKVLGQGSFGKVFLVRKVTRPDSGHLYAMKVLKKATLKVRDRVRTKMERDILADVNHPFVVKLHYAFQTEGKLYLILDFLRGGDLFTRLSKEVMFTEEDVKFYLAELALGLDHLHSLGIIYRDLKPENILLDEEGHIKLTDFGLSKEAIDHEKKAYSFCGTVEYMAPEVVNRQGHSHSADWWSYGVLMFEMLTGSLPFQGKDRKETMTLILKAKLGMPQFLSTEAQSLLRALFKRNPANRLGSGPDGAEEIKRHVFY
T4 sequence (P09619 33-1106): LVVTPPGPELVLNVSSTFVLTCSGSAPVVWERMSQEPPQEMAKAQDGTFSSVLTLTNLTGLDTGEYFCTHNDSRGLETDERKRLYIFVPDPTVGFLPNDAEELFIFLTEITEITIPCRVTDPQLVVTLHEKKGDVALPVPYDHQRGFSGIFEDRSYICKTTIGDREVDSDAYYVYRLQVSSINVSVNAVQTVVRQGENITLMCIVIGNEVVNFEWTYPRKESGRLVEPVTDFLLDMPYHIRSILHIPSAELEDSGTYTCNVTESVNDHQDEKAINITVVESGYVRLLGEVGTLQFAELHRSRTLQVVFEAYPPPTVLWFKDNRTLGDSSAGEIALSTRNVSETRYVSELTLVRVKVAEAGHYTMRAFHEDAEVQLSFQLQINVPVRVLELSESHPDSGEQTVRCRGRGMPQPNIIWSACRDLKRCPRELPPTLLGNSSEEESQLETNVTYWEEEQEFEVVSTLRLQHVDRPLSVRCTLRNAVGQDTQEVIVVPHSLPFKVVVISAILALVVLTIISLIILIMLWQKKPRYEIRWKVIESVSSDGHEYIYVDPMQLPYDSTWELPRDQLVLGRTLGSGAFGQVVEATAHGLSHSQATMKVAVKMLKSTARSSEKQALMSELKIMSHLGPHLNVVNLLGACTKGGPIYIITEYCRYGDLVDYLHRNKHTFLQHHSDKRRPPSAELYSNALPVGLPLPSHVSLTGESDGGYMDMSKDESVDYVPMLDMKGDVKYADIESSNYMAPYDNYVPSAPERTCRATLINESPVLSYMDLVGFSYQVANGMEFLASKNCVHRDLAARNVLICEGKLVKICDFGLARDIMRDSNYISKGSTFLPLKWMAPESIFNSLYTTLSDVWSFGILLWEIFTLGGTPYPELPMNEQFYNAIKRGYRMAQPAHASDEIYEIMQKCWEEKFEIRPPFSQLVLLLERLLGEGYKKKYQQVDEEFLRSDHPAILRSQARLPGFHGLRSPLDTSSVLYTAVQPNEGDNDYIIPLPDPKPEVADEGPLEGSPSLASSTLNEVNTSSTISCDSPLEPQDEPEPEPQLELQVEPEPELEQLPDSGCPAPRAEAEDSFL
T1 sequence (O00506 whole entry): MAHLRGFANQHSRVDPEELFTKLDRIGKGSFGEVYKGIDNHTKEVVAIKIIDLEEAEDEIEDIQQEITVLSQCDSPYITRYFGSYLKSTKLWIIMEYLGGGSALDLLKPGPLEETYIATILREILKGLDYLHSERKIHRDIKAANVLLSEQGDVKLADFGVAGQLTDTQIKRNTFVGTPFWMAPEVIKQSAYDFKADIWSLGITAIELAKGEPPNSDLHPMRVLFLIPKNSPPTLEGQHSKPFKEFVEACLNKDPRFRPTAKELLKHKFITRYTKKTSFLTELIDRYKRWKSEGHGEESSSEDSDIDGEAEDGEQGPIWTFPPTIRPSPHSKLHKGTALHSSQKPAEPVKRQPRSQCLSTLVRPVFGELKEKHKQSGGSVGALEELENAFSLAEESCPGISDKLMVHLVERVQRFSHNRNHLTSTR
T2 sequence (Q96L34 whole entry): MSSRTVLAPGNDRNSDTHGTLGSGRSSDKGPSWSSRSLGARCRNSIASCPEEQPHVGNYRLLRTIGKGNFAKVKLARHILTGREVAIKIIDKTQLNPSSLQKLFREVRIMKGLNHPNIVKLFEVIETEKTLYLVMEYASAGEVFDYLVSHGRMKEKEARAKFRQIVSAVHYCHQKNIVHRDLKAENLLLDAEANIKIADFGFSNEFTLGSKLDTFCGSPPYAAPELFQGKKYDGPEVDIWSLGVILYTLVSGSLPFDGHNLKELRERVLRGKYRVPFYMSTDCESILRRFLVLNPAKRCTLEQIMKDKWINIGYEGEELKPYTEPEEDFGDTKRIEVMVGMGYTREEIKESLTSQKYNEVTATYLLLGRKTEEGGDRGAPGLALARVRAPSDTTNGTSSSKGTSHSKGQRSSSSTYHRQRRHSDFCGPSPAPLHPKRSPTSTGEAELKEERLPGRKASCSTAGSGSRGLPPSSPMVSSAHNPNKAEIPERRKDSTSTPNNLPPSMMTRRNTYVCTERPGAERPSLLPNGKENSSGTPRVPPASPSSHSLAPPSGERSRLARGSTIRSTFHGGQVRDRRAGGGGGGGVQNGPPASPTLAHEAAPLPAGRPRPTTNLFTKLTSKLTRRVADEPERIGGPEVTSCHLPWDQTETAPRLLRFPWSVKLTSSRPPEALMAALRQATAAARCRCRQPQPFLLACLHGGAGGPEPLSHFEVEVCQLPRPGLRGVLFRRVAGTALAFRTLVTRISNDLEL
T5 sequence (P45984 whole entry): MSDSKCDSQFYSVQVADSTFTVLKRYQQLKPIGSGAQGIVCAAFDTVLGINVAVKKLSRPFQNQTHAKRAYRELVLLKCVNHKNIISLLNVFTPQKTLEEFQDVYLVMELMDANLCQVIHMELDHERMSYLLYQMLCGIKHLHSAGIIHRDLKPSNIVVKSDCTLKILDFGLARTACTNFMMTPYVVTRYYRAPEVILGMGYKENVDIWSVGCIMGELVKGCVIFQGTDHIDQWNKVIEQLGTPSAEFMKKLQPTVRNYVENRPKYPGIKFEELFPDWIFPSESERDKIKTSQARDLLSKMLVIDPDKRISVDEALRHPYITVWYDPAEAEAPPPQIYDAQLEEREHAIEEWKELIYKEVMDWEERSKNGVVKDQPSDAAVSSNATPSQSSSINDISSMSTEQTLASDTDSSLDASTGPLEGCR

As to `CCc1ccc2c(c1)C1(NN=C(c3cccc4ccccc34)S1)C(=O)N2` (stereo not shown) [OGM1, 5-ethyl-5′-naphthalen-1-ylspiro[1H-indole-3,2′-3H-1,3,4-thiadiazole]-2-one], the remaining binding at 10 µM in test [1] was 80%; in test [2], 95%; in [4] it was 72%; in [5], 83%; in test [9] it was 78%. For the same compound, the Antagonism in [3] (10 uM) was −12.8; in [6] (10 uM), −13.9; in test [7] (10 uM), −6.1; in test [8] (10 uM) it was −3.3. Besides, the Agonism in test [3] (12.5 uM) was found to be 4.4; in test [6] (12.5 uM), 0.1; in test [7] (12.5 uM), 0.3; in test [8] (12.5 uM), 0.8.

As to `CCc1ccc2c(c1)C1(NN=C(c3ccccc3)S1)C(=O)N2` (stereo not shown) [OGM2], in test [10], the lipid peroxidation result is reported as “significantly increased lipid peroxidation”. For the same compound, the lipid peroxidation entry in test [11] is given as “significantly increased lipid peroxidation”. For the same compound, in [12], the Mucin production entry is listed as “inhibits Mucin production”. In addition, in test [13], the “% Survival 2 μM OGM” value is given as 44.5% and the “% Survival 10 μM OGM” value was found to be 32.7%. Moreover, the CC50 in [13] (Homo sapiens, HCT-116, read-out: LC50 (the source's name)) was < 2 µM.
